Values quoted from earlier work, collected in US8901138B2, “Sulfoximine substituted quinazolines for pharmaceutical compositions” (Boehringer Ingelheim International GmbH, priority 2012, dated 2014).

Test system: phosphorylated elF4E
Details: cell culture cells transfected with MNK2 (MNK2a or MNK2b) or MNK1; cited from earlier work

For `Nc1ncnc2n[nH]c(Nc3ccc(F)cc3)c12` [CGP57380], the “reduction of phosphorylated elF4E” value is given as “strong reduction”.
